Test results reported in patent US10100005B1 (Eclipse Therapeutics, LLC, priority 2017, dated 2018).

Legend:
Format in all cases: physicochemical
[1] = Solubility testing in sodium phosphate buffer; settings: thermodynamic from solid; aqueous buffer, 0.02 molar dibasic sodium phosphate; sonicated, undissolved solid weighed
Procedure: Compounds of Formulas I and II, prepared as described in the examples above, were tested to determine their solubility in a sodium phosphate buffer.
An aqueous buffer solution comprising 0.02 molar dibasic sodium phosphate was prepared. A weighted amount of solid was sonicated in the buffer, and then centrifuged to collect the undissolved material. The undissolved solid was dried in vacuuo and weighed. The mass of the undissolved portion was then used to calculate the mass that was successfully dissolved in the known volume of buffer.

[2] = Solution stability in aqueous sodium phosphate buffer (visual, photographs); settings: for appearance of solution after storage: 11 mg in 5 ml 0.02 molar dibasic sodium phosphate buffer, ambient temperature, 3 days
Procedure: An aqueous buffer solution comprising 0.02 molar dibasic sodium phosphate was prepared. An 11 mg sample of 5-glyoxyliminosalicylic acid (Formula Ia-i) was added to a vial containing 5 ml of the buffer solution. […] Both vials were stored at ambient temperature.

[3] = In vitro testing: decomposition to 5-ASA in phosphate buffer (pH 6.5), by infusion MS and LCMS; settings: 10 mg in 10 ml phosphate buffer (pH 6.5) overnight
Procedure: 10 mg of 5-ethylglyoxyliminosalicylic acid (prepared as described in Example 4 above) was stored in 10 ml phosphate buffer (pH 6.5) overnight.

[4] = In vitro testing: mesalamine (5-ASA) evolution from 5-glyoxyliminosalicylic acid in buffered saline, by HPLC
Procedure: The vial was held at ambient temperature for 22.75 hours and sampled. […] No other peaks were present.
Without being bound to a particular theory, it is believed that for 5-glyoxyliminosalicylic acid, the presence of chloride greatly increases the rate of mesalamine evolution.

solubility [1] [mg/mL] | Compound | other results
0.13 | CCOC(=O)/C=N\c1ccc(O)c(C(=O)OCC)c1 [Formula Ia-ii, ethyl 5-ethylglyoxyliminosalicylate] | –
3.45 | COc1cc(/C=N\c2ccc(O)c(C(=O)O)c2)ccc1O [Formula IIa-i, 5-vanilliniminosalicylic acid] | –
– | Nc1ccc(O)c(C(=O)O)c1 [Mesalazine, 5-aminosalicylic acid, reference compound] | appearance of solution after storage [2]: turned a dark brown color, and a significant amount of brown solid material precipitated
17.3 | O=C(O)/C=N/c1ccc(C(=O)O)c(O)c1 [Formula Ib-i, 4-glyoxyliminosalicylic acid] | –
12 | CCOC(=O)/C=N\c1ccc(O)c(C(=O)O)c1 [Formula Ia-iii, 5-ethylglyoxyliminosalicylic acid] | decomposed to 5-ASA (LCMS, single ion monitoring) [3]: ~90%; decomposition to release 5-ASA (infusion MS) [3]: partially decomposed
7.35 | COc1cc(/C=N\c2ccc(C(=O)O)c(O)c2)ccc1O [Formula IIb-i, 4-vanilliniminosalicylic acid] | –
11 | O=C(O)/C=N\c1ccc(O)c(C(=O)O)c1 [Formula Ia-i, 5-glyoxyliminosalicylic acid] | percentage of 5-aminosalicylic acid by HPLC ([4]; 12 mg compound + 12 mg 5-aminosalicylic acid in 6 ml buffered saline, ambient temperature, 22.75 hours, no other peaks): 87%; mesalamine evolution ([4]; same experiment in the absence of saline): very little mesalamine evolution; appearance of solution after storage [2]: still clear and lightly colored; storage stability relative to mesalazine ([2]; dissolved in aqueous sodium phosphate buffer, 3 days ambient): significantly greater degree of storage stability than mesalazine
10.2 | CCOC(=O)C=Nc1ccc(C(=O)O)c(O)c1 [Formula Ib-ii, 4-ethylgloxyliminosalicylic acid] | –
